Measured values reported in patent publication US9855268B2, “Triazolo[4,5-d]pyrimidine derivatives” (Merck Patent GmbH, priority 2013, dated 2018).

Columns and labels:
GCN2 [1] = molecular target: T1, GCN2 (Homo sapiens, UniProt Q9P2K8); assay: GCN2 enzyme assay (TR-FRET Lanthascreen, GFP-eIF2alpha phosphorylation); assay type: biochemical; details: 10 μM ATP, 80 nM GFP-eIF2a, 30 nM GCN2
In short: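 Kinase reaction with 10 μM ATP and 80 nM GFP-labelled eIF2alpha substrate at room temperature, stopped with EDTA. Phospho-eIF2alpha detected by TR-FRET between antibody and GFP-substrate, excitation at 340 nm.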
Target sequence in this assay (Q9P2K8 whole entry, species assumed): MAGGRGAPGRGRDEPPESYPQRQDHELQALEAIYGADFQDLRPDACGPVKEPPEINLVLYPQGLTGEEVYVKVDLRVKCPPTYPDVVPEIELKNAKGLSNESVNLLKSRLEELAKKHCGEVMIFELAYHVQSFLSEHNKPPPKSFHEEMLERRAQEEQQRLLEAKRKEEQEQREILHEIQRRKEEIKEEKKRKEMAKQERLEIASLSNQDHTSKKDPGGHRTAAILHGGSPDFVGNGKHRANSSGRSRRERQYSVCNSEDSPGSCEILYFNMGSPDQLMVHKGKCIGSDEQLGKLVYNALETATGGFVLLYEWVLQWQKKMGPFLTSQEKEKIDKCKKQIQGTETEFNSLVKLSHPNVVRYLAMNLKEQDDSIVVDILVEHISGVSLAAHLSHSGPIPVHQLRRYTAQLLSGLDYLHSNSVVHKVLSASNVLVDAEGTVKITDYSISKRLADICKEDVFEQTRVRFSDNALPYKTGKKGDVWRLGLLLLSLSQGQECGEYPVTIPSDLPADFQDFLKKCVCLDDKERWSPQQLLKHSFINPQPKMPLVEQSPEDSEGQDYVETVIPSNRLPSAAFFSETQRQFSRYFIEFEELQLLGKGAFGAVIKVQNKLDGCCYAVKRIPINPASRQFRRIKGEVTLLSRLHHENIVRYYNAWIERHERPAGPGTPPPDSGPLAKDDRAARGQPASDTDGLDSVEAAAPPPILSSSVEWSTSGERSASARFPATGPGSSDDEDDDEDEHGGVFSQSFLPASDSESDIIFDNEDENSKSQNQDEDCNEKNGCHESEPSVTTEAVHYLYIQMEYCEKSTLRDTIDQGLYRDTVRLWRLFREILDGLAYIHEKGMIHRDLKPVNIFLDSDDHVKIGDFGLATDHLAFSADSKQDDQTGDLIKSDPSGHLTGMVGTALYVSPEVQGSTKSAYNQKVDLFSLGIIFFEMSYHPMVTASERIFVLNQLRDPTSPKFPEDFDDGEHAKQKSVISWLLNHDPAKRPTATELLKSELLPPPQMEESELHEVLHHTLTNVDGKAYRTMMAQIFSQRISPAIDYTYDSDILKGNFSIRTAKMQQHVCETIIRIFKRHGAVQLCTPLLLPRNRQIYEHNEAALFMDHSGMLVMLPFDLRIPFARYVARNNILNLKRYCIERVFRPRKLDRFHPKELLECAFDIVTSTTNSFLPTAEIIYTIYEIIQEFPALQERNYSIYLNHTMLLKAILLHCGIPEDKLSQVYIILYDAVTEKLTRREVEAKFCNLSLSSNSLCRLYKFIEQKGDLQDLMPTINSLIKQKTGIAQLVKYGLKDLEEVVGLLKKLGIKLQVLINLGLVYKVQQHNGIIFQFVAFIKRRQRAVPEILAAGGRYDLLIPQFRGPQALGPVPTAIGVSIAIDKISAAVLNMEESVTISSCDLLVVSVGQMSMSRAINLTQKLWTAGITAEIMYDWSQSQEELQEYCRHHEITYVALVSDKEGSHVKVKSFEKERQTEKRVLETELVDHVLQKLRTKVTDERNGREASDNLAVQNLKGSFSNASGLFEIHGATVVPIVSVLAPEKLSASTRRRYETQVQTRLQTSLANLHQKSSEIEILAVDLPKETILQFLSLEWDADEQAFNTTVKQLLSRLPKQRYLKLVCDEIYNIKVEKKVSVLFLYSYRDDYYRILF

GSK3α(h) = GSK3α(h) (Homo sapiens, UniProt P49840); assay: GSK3α radiometric kinase assay (33P-ATP, phospho GS2 peptide); assay type: biochemical; details: read-out: IC50 GSK3α (enzyme assay)
In short: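 Human GSK3α incubated with 20 μM phospho-GS2 peptide in 8 mM MOPS pH 7,0, 10 mM Mg-acetate and [γ-33P]ATP (concentration as required), started with MgATP. After 40 minutes at room temperature, stopped with phosphoric acid; 33P incorporation measured by filtermat spotting and scintillation counting.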

GSK3β(h) = GSK3β(h) (Homo sapiens, UniProt P49841); assay: GSK3β radiometric kinase assay (33P-ATP, phospho GS2 peptide); assay type: biochemical; details: read-out: IC50 GSK3β (enzyme assay)
Experimental: GSK3β(h) is incubated with 8 mM MOPS pH 7,0, 0,2 mM EDTA, 20 μM
[…](p)EDEEE (phosphor GS2 peptide), 10 mM Mg-acetate and [gamma-33P-ATP](specific activity approx. 500 cpm/Pmol, concentration as required). The reaction is initiated by the addition of the MgATP. After incubation for 40 minutes at the room temperature, the Reaction is stopped by the addition of 3% phosphoric acid solution. 10 μL of reaction is then spotted onto a P30 filtermat and washed three times for 5 minutes in 50 mM phosphoric acid and once in methanol prior to drying and scintillation counting.

GCN2 [2] = molecular target: T1, GCN2; assay: Cellular assay of GCN2 activity (phospho-eIF2alpha immunocytochemistry after tryptophanol); assay type: cell-based; parameters: endogenous in cells; host or cells: U2OS; details: Human U2OS cells, 2 h compound, 600 μM tryptophanol 30 min
In short: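 Readout in human U2OS cells: compound pretreatment 2 h, then tryptophanol (600 μM final) for 30 min to trigger GCN2 signalling. Fixed, permeabilised cells quantified by immunocytochemistry for phosphorylation, normalised to DMSO controls as % effect; IC50 from concentration-response.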
Target sequence in this assay (Q9P2K8 whole entry): as the sequence (Q9P2K8 whole entry, species assumed) above

GSK3α(h), sequence (P49840 whole entry): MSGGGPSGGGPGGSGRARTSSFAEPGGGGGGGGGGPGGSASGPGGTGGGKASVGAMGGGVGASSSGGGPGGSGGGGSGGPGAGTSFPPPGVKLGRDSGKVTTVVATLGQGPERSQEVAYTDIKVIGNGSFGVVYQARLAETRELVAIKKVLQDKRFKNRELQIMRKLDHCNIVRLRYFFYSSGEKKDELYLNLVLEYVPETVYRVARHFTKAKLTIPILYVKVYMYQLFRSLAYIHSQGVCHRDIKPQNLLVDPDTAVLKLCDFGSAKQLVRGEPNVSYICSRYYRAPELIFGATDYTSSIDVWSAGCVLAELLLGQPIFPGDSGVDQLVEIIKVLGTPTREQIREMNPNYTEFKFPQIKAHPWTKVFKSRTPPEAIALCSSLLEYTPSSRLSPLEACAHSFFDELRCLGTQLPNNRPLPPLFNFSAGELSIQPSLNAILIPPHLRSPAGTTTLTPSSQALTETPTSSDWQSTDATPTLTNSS
GSK3β(h), sequence (P49841 whole entry): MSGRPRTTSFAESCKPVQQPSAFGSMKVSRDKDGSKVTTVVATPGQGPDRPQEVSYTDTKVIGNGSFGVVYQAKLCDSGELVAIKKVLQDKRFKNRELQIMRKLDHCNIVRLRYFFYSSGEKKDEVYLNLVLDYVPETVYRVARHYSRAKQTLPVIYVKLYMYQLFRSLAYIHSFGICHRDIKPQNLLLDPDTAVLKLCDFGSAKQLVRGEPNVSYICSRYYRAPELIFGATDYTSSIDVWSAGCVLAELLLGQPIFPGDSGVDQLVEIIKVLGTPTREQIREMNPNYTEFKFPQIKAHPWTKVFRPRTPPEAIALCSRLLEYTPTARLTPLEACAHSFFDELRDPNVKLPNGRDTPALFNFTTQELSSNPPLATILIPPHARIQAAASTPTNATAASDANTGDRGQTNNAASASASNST

Row | SMILES | IC50 (GCN2 [1]) | IC50 (GSK3α(h)) | IC50 (GSK3β(h)) | IC50 (GCN2 [2])
1 | COCCn1cc(-c2ccc(-n3nnc4cnc(N[C@@H]5CC[C@H](N)C5)nc43)cc2)cn1 [A121, (1S,3R)—N3-(3-{4-[1-(2-methoxy-ethyl)-1H-pyrazol-4-yl]-phenyl}-3H-[1,2,3]triazolo[4,5-d]pyrimidin-5-yl)-cyclopentane-1,3-diamine] | < 1000 nM | < 1000 nM | 1000 to 5000 nM | 1000 to 5000 nM
2 | NC(=O)[C@@H]1CC[C@@H](Nc2ncc3nnn(-c4ccc(OC[C@@H](O)C(F)(F)F)cc4)c3n2)C1 [A155, (1R,3R)-3-{3-[4-((R)-3,3,3-trifluoro-2-hydroxy-propoxy)-phenyl]-3H-[1,2,3]triazolo[4,5-d]pyrimidin-5-ylamino}-cyclopentanecarboxylic acid amide] | < 1000 nM | < 1000 nM | < 1000 nM | 1000 to 5000 nM
3 | NC(=O)[C@@H]1CC[C@@H](Nc2ncc3nnn(-c4ccc(OC[C@H](O)C(F)(F)F)cc4)c3n2)C1 [A151, (1R,3R)-3-{3-[4-((S)-3,3,3-trifluoro-2-hydroxy-propoxy)-phenyl]-3H-[1,2,3]triazolo[4,5-d]pyrimidin-5-ylamino}-cyclopentanecarboxylic acid amide] | < 1000 nM | < 1000 nM | < 1000 nM | 1000 to 5000 nM
4 | Cc1cc2cc(-n3nnc4cnc(N[C@@H]5CC[C@@H](C(N)=O)C5)nc43)ccc2o1 [A180, (1R,3R)-3-[3-(2-methyl-benzofuran-5-yl)-3H-[1,2,3]triazolo[4,5-d]pyrimidin-5-ylamino]-cyclopentanecarboxylic acid amide] | < 1000 nM | < 1000 nM | < 1000 nM | 1000 to 5000 nM
5 | Cc1ccc2cc(-n3nnc4cnc(N[C@@H]5CC[C@@H](N)C5)nc43)ccc2n1 [A124, (1R,3R)—N-[3-(2-methyl-quinolin-6-yl)-3H-[1,2,3]triazolo[4,5-d]pyrimidin-5-yl]-cyclopentane-1,3-diamine] | < 1000 nM | < 1000 nM | 1000 to 5000 nM | 1000 to 5000 nM
6 | CCOc1ccc(-n2nnc3cnc(N[C@@H]4CC[C@@H](C(N)=O)C4)nc32)cn1 [A179, (1R,3R)-3-[3-(6-ethoxy-pyridin-3-yl)-3H-[1,2,3]triazolo[4,5-d]pyrimidin-5-ylamino]-cyclopentanecarboxylic acid amide] | < 1000 nM | < 1000 nM | < 1000 nM | –
7 | CN1CCN(CCC(=O)N2CC[C@@H](Nc3ncc4nnn(-c5ccc6ncccc6c5)c4n3)C2)CC1 [A133, 3-(4-methyl-piperazin-1-yl)-1-[(R)-3-(3-quinolin-6-yl-3H-[1,2,3]triazolo[4,5-d]pyrimidin-5-ylamino)-pyrrolidin-1-yl]-propan-1-one] | < 1000 nM | < 1000 nM | 1000 to 5000 nM | –
8 | COCCn1cc(-n2nnc3cnc(N[C@@H]4CC[C@@H](C(N)=O)C4)nc32)cn1 [A159, (1R,3R)-3-{3-[1-(2-methoxy-ethyl)-1H-pyrazol-4-yl]-3H-[1,2,3]triazolo[4,5-d]-pyrimidin-5-ylamino}-cyclopentanecarboxylic acid amide] | < 1000 nM | < 1000 nM | < 1000 nM | –
9 | COc1ccc2cc(-n3nnc4cnc(N[C@@H]5CC[C@@H](C(N)=O)C5)nc43)ccc2n1 [A181, (1R,3R)-3-[3-(2-methoxy-quinolin-6-yl)-3H-[1,2,3]triazolo[4,5-d]pyrimidin-5-ylamino]-cyclopentanecarboxylic acid amide] | < 1000 nM | < 1000 nM | < 1000 nM | –
10 | Cc1ccc2cc(-n3nnc4cnc(N[C@@H]5CCN(C(=O)CCN6CCN(C)CC6)C5)nc43)ccc2n1 [A134, 3-(4-methyl-piperazin-1-yl)-1-{(R)-3-[3-(2-methyl-quinolin-6-yl)-3H-[1,2,3]triazolo[4,5-d]pyrimidin-5-ylamino]-pyrrolidin-1-yl}-propan-1-one] | < 1000 nM | < 1000 nM | 1000 to 5000 nM | –
11 | COc1ccc(-n2nnc3cnc(N[C@H]4C[C@H](C(N)=O)C4)nc32)cc1 [A145, (trans)-3-[3-(4-methoxy-phenyl)-3H-[1,2,3]triazolo[4,5-d]pyrimidin-5-ylamino]-cyclobutanecarboxylic acid amide] | < 1000 nM | < 1000 nM | < 1000 nM | –

Next, values leading:

Row | IC50 (GCN2 [1]) | IC50 (GSK3α(h)) | IC50 (GSK3β(h)) | IC50 (GCN2 [2]) | SMILES
12 | < 1000 nM | < 1000 nM | < 1000 nM | 5000 to 10000 nM | CC(C)Oc1ccc(-n2nnc3cnc(N[C@@H]4CC[C@@H](O)C4)nc32)cc1 (relative stereo) [A210, (trans)-3-[3-(4-isopropoxy-phenyl)-3H-[1,2,3]triazolo[4,5-d]pyrimidin-5-ylamino]-cyclopentanol]
13 | < 1000 nM | < 1000 nM | < 1000 nM | 5000 to 10000 nM | COc1ccc(-n2nnc3cnc(N[C@@H]4C=C[C@@H](C(N)=O)C4)nc32)cc1 [A273, (1S,4S)-4-[3-(4-Methoxy-phenyl)-3H-[1,2,3]triazolo[4,5-d]pyrimidin-5-ylamino]-cyclopent-2-enecarboxylic acid amide]
14 | < 1000 nM | < 1000 nM | < 1000 nM | 1000 to 5000 nM | O[C@@H]1CC[C@@H](Nc2ncc3nnn(-c4ccc5ncccc5c4)c3n2)C1 [A204, (1R,3R)-3-(3-quinolin-6-yl-3H-[1,2,3]triazolo[4,5-d]pyrimidin-5-ylamino)-cyclopentanol]
15 | < 1000 nM | < 1000 nM | < 1000 nM | 1000 to 5000 nM | Cc1ncc2cc(-n3nnc4cnc(N[C@@H]5CC[C@@H](C(N)=O)C5)nc43)ccc2n1 [A184, (1R,3R)-3-[3-(2-methyl-quinazolin-6-yl)-3H-[1,2,3]triazolo[4,5-d]pyrimidin-5-ylamino]-cyclopentanecarboxylic acid amide]
16 | < 1000 nM | < 1000 nM | < 1000 nM | 1000 to 5000 nM | OCCn1cc(-c2ccc(-n3nnc4cnc(N[C@@H]5CC[C@@H](O)C5)nc43)cc2)cn1 [A259, (1R,3R)-3-(3-{4-[1-(2-hydroxy-ethyl)-1H-pyrazol-4-yl]-phenyl}-3H-[1,2,3]triazolo[4,5-d]pyrimidin-5-ylamino)-cyclopentanol]
17 | < 1000 nM | < 1000 nM | < 1000 nM | 5000 to 10000 nM | COCCn1cc(-c2ccc(-n3nnc4cnc(N[C@@H]5CC[C@@H](C(N)=O)C5)nc43)cn2)cn1 [A224, (1R,3R)-3-(3-{6-[1-(2-methoxy-ethyl)-1H-pyrazol-4-yl]-pyridin-3-yl}-3H-[1,2,3]triazolo[4,5-d]pyrimidin-5-ylamino)-cyclopentanecarboxylic acid amide]
18 | < 1000 nM | < 1000 nM | < 1000 nM | 1000 to 5000 nM | COCCn1cc(-c2ccc(-n3nnc4cnc(N[C@@H]5CC[C@@H](C(N)=O)C5)nc43)cc2F)cn1 [A221, (1R,3R)-3-(3-{3-fluoro-4-[1-(2-methoxy-ethyl)-1H-pyrazol-4-yl]-phenyl}-3H-[1,2,3]triazolo[4,5-d]pyrimidin-5-ylamino)-cyclopentanecarboxylic acid amide]
19 | < 1000 nM | < 1000 nM | < 1000 nM | 5000 to 10000 nM | NC(=O)[C@@H]1CC[C@@H](Nc2ncc3nnn(-c4ccc(OCCN5CCOCC5)cc4)c3n2)C1 [A277, (1R,3R)-3-{3-[4-(2-morpholin-4-yl-ethoxy)-phenyl]-3H-[1,2,3]triazolo[4,5-d]pyrimidin-5-ylamino}-cyclopentanecarboxylic acid amide]
20 | < 1000 nM | < 1000 nM | < 1000 nM | 1000 to 5000 nM | Cc1ccc2cc(-n3nnc4cnc(N[C@@H]5CC[C@@H](C(=O)NCC6CCN(C)CC6)C5)nc43)ccc2n1 [A252, (1R,3R)-3-[3-(2-methyl-quinolin-6-yl)-3H-[1,2,3]triazolo[4,5-d]pyrimidin-5-ylamino]-cyclopentanecarboxylic acid (1-methyl-piperidin-4-ylmethyl)-amide]
21 | < 1000 nM | < 1000 nM | 1000 to 5000 nM | – | CCOc1ccc(-n2nnc3cnc(N[C@@H]4CC[C@@H](c5nnc(N)o5)C4)nc32)cc1 [A283, [(1R,3R)-3-(5-amino-[1,3,4]oxadiazol-2-yl)-cyclopentyl]-[3-(4-ethoxy-phenyl)-3H-[1,2,3]triazolo[4,5-d]pyrimidin-5-yl]-amine]
22 | < 1000 nM | < 1000 nM | < 1000 nM | – | Cc1ncc2cc(-n3nnc4cnc(N[C@@H]5CC[C@@H](O)C5)nc43)ccc2n1 (relative stereo) [A209, (trans)-3-[3-(2-methyl-quinazolin-6-yl)-3H-[1,2,3]triazolo[4,5-d]pyrimidin-5-ylamino]-cyclopentanol]
23 | < 1000 nM | < 1000 nM | < 1000 nM | – | CCOc1ccc(-n2nnc3cnc(N[C@@H]4CC[C@@H](c5nnc(C)o5)C4)nc32)cc1 [A281, [3-(4-ethoxy-phenyl)-3H-[1,2,3]triazolo[4,5-d]pyrimidin-5-yl]-[(1R,3R)-3-(5-methyl-[1,3,4]oxadiazol-2-yl)-cyclopentyl]-amine]
